Laboratory results as given in ChEMBL document CHEMBL3886450, “Tricyclic indole derivatives useful endothelial lipase inhibitors” (2015).

Target: T1, Endothelial lipase (Homo sapiens, UniProt Q9Y5X9)
T1 sequence (Q9Y5X9 whole entry): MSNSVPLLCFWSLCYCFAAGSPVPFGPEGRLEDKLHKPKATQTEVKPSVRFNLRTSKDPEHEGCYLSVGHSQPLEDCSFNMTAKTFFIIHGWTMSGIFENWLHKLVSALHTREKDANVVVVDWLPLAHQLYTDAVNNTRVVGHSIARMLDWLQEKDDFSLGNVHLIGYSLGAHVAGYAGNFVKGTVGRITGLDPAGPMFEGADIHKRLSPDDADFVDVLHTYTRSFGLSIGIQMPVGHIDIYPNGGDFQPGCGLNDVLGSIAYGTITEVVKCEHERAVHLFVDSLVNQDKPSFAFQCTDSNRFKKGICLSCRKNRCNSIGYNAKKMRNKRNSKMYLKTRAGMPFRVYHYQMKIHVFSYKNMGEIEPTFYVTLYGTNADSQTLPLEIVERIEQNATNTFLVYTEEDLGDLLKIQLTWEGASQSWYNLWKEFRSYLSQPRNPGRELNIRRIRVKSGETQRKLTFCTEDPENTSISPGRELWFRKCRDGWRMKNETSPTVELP
Experiment: Endothelial Lipase Assay: To assay for cell surface lipase activity, cells expressing human endothelial lipase (EL) or LPL were plated in CellBIND® 384-well plates (Corning, Lowell, Mass.) in 25 μL serum free medium at a density of 2000 cells/well. After 18-24 hours incubation at 37° C., the medium was removed and replaced with 15 μL assay buffer [Hank's Buffered Saline Solution with 25 mM HEPES pH 7.2] and 15 μL PLA1 substrate for a final concentration of 10 μM using a Multidrop reagent dispenser. Fluorescence signal was monitored for 30 min at 37° C. on a Safire II plate reader in kinetic mode (60 cycles, kinetic interval: 30 seconds) with an excitation wavelength of 490 nm and an emission wavelength of 515 nm.
Assay type: cell-based

Row | IC50 | Compound
1 | 68 nM | NS(=O)(=O)N1CCn2c(CCc3ccccc3)c(C(F)(F)F)c3cccc(c32)C1
2 | 101 nM | CC(CC(=O)N1CCn2c(CCc3ccccc3)c(C(F)(F)F)c3cccc(c32)C1)C(F)(F)F (configuration not stated)
